Measured values reported in the RepoRT retention time repository (doi:10.1007/s11306-014-0638-x).

Experiment: RP, Waters ACQUITY UPLC HSS T3, 150 × 2.1 mm, 1.8 µm, 40 °C, 0.28 mL/min, estimated dead time 1.2 min; A: water + 0.1% formic acid, pH 3; B: methanol + 0.1% formic acid, pH 3; gradient (min/%B) 0/0 1/0 3/10 18/40 21/100 25.5/100 25.6/0 28/0
Conditions: stereoisomer not certain

SMILES	LC retention time [min]
O=C(O)c1ccc(O)c(O)c1 [3,4-dihydroxybenzoic acid]	7.77
O=C(O)c1cc(O)cc(O)c1 [3,5-dihydroxybenzoic acid]	7.75
O=C(O)c1ccc(O)cc1 [4-hydroxybenzoic acid]	10.6
NC(CCC(=O)NC(CS)C(=O)NCC(=O)O)C(=O)O [L-glutathione]	1.7
CC[C@H](C)[C@H](N)C(=O)O [L-isoleucine]	4.44
O=C(O)[C@@H]1CCCN1 [L-proline]	1.51
O=C(O)[C@H](O)[C@@H](O)C(=O)O [L-tartaric acid]	1.46
N[C@@H](Cc1ccc(O)cc1)C(=O)O [L-tyrosine]	4.28
O=C1CC(c2ccc(O)c(O)c2)c2c(cc(O)c3c2OC(c2ccc(O)c(O)c2)C(O)C3)O1 (stereo not given) [caffeic acid+catechin condensation product]	17.8
O=C(C=Cc1ccc(O)c(O)c1)OC(C(=O)O)C(O)C(=O)O (stereo not given) [caftaric acid]	8.53
OCC1OC(Oc2cc(O)cc(C=Cc3ccc(O)cc3)c2)C(O)C(O)C1O (stereo not drawn) [cis-piceid]	18.4
Oc1ccc(/C=C\c2cc(O)cc(O)c2)cc1 [cis-resveratrol]	20.4
CC(O)(CC(=O)O)C(=O)O (stereo not given) [citramalic acid]	4.02
O=c1oc2c(O)c(O)cc3c(=O)oc4c(O)c(O)cc1c4c23 [ellagic acid]	20.3
Oc1ccc(C2Oc3cc(O)cc(O)c3CC2O)cc1 (stereo not given) [epiafzelechin]	15.6
O=C(OC1Cc2c(O)cc(O)cc2OC1c1ccc(O)c(O)c1)c1cc(O)c(O)c(O)c1 (stereo not given) [epicatechin gallate]	16
Oc1cc(O)c2c(c1)OC(c1ccc(O)c(O)c1)C(O)C2 (stereo not given) [epicatechin]	12.1
O=C(OC1Cc2c(O)cc(O)cc2OC1c1cc(O)c(O)c(O)c1)c1cc(O)c(O)c(O)c1 (stereo not given) [epigallo-catechin gallate]	12.7
CCOC(=O)c1cc(O)c(O)c(O)c1 [ethyl gallate]	15.2
COc1cc(C=CC(=O)OC(C(=O)O)C(O)C(=O)O)ccc1O (stereo not given) [fertaric acid]	11.8
Oc1cc(O)c2c(c1)OC(c1cc(O)c(O)c(O)c1)C(O)C2 (stereo not given) [gallocatechin]	8.68

SMILES	LC retention time [min]
COc1ccc(C2CC(=O)c3c(O)cc(O)cc3O2)cc1O (stereo not given) [hesperetin]	21.1
Oc1ccc(C2Oc3cc(O)cc4c3C2c2cc(O)cc(O)c2C(c2ccc(O)cc2)C4C2c3cc(O)cc4c3C(c3cc(O)cc(O)c3C2c2ccc(O)cc2)C(c2ccc(O)cc2)O4)cc1 (stereo not given) [isohopeaphenol]	10.7
COC(=O)c1cc(O)c(O)c(O)c1 [methyl gallate]	10.7
O=C1CC(c2ccc(O)cc2)Oc2cc(O)cc(O)c21 (stereo not given) [naringenin]	21
O=C(O)C=Cc1ccccc1O [o-coumaric acid]	19.7
Oc1ccc(C2c3c(O)cc(O)cc3C3C(c4ccc(O)cc4)c4c(O)cc(O)cc4C23)cc1 (stereo not given) [pallidol]	17.6
CCOc1ccc(NC(C)=O)cc1 [phenacetin]	19.4
O=C(CCc1ccc(O)cc1)c1c(O)cc(O)cc1O [phloretin]	21.1
Oc1cc(O)c2c(c1)OC(c1ccc(O)c(O)c1)C(O)C2c1c(O)cc(O)c2c1OC(c1ccc(O)c(O)c1)C(O)C2 (stereo not given) [procyanidin B1]	9.66
CCC(=O)O [proprionic acid]	3.95
COc1cc(C=Cc2ccc(O)cc2)cc(OC)c1 [pterostilbene]	21.9
O=C(O)C1(O)CC(O)C(O)C(O)C1 (stereo not given) [quinic acid]	1.58
O=C(O)CCC(=O)O [succinic acid]	3.94
COc1cc(C(=O)O)cc(OC)c1O [syringic acid]	13.8
O=C1c2c(O)cc(O)cc2OC(c2ccc(O)c(O)c2)C1O (stereo not given) [taxifolin]	16.8
O=C(C=Cc1ccc(O)cc1)OC(C(=O)O)C(O)C(=O)O (stereo not drawn) [trans coutaric acid]	10.7
O=c1cc[nH]c(=O)[nH]1 [uracil]	2.34
O=c1[nH]c(=O)c2[nH]c(=O)[nH]c2[nH]1 [uric acid]	3.44
Oc1ccc(C2Oc3ccc(C=Cc4cc(O)cc5c4C(c4cc(O)cc(O)c4)C(c4ccc(O)cc4)O5)cc3C2c2cc(O)cc3c2C(c2cc(O)cc(O)c2)C(c2ccc(O)cc2)O3)cc1 (stereo not given) [vitisin B]	18.3
O=c1[nH]c(=O)c2[nH]cnc2[nH]1 [xanthine]	3.97

Further lines, results first:

LC retention time [min]	SMILES
14.2	OCC1OC(Oc2cc(O)cc(C=Cc3ccc(O)c(O)c3)c2)C(O)C(O)C1O (stereo not given) [astringin]
12.6	COc1cc2ccc(=O)oc2c(OC2OC(CO)C(O)C(O)C2O)c1O (stereo not given) [fraxin]
20.5	COc1cc(-c2oc3cc(O)cc(O)c3c(=O)c2OC2OC(CO)C(O)C(O)C2O)ccc1O (stereo not given) [isorhamnetin 3-glucoside]
20.6	COc1cc(-c2oc3cc(O)cc(O)c3c(=O)c2OC2OC(COC3OC(C)C(O)C(O)C3O)C(O)C(O)C2O)ccc1O (stereo not given) [isorhamnetin 3-rutinoside]
17.6	COc1cc(C=Cc2cc(O)cc(OC3OC(CO)C(O)C(O)C3O)c2)ccc1O (stereo not given) [isorhapontin]
20.3	O=c1c(OC2OC(CO)C(O)C(O)C2O)c(-c2ccc(O)cc2)oc2cc(O)cc(O)c12 (stereo not given) [kaempferol 3-glucoside]
20.5	CC1OC(OCC2OC(Oc3c(-c4ccc(O)cc4)oc4cc(O)cc(O)c4c3=O)C(O)C(O)C2O)C(O)C(O)C1O (stereo not given) [kaempferol 3-rutinoside]
19.7	O=c1cc(-c2ccc(O)c(O)c2)oc2cc(OC3OC(CO)C(O)C(O)C3O)cc(O)c12 (stereo not given) [luteolin 7-glucoside]
19.7	COc1cc(-c2oc3cc(=O)cc4oc(C)cc(c2OC2OC(CO)C(O)C(O)C2O)c43)cc(OC)c1O (stereo not given) [methylpyrano malvidin 3-glucoside]
19.5	O=C1CC(c2ccc(O)cc2)Oc2cc(OC3OC(CO)C(O)C(O)C3O)cc(O)c21 (stereo not given) [naringenin 7-glucoside]
20.7	COc1cc(-c2oc3cc(=O)cc4oc(O)cc(c2OC2OC(CO)C(O)C(O)C2O)c43)cc(OC)c1O (stereo not given) [oxovitisin A]
20.2	O=C(CCc1ccc(O)cc1)c1c(O)cc(O)cc1OC1OC(CO)C(O)C(O)C1O (stereo not given) [phloridzin]
17.4	O=c1c(OC2OC(CO)C(O)C(O)C2O)c(-c2ccc(OC3OC(CO)C(O)C(O)C3O)c(O)c2)oc2cc(O)cc(O)c12 (stereo not given) [quercetin 3,4'-diglucoside]
20	O=c1c(OC2OC(C(O)CO)C(O)C2O)c(-c2ccc(O)c(O)c2)oc2cc(O)cc(O)c12 (stereo not given) [quercetin 3-glucoside]
19.9	O=C(O)C1OC(Oc2c(-c3ccc(O)c(O)c3)oc3cc(O)cc(O)c3c2=O)C(O)C(O)C1O (stereo not given) [quercetin 3-glucuronide]
20	CC1OC(OCC2OC(Oc3c(-c4ccc(O)c(O)c4)oc4cc(O)cc(O)c4c3=O)C(O)C(O)C2O)C(O)C(O)C1O (stereo not given) [quercetin 3-rutinoside]
20.1	O=c1c(OS(=O)(=O)O)c(-c2ccc(O)c(O)c2)oc2cc(O)cc(O)c12 [quercetin 3-sulfate]
20.4	O=c1c(O)c(-c2ccc(OC3OC(CO)C(O)C(O)C3O)c(O)c2)oc2cc(O)cc(O)c12 (stereo not given) [quercetin 4'-glucoside]
19.3	COc1cc(-c2oc3cc(=O)cc4oc(O)c(C=[OH+])c(c2OC2OC(CO)C(O)C(O)C2O)c43)cc(OC)c1O (stereo not given) [vitisin A]
